Measurements: US12459967B2, “Modulators of 5′-nucleotidase, ecto and the use thereof” (Arcus Biosciences, Inc., priority 2016, dated 2025)

Molecular target: T1, human CD73 (Homo sapiens, UniProt P21589)
T1 construct: host or cells: CHO-K1 (suspension pool CHO-CD73)
T1 sequence (P21589 27-549): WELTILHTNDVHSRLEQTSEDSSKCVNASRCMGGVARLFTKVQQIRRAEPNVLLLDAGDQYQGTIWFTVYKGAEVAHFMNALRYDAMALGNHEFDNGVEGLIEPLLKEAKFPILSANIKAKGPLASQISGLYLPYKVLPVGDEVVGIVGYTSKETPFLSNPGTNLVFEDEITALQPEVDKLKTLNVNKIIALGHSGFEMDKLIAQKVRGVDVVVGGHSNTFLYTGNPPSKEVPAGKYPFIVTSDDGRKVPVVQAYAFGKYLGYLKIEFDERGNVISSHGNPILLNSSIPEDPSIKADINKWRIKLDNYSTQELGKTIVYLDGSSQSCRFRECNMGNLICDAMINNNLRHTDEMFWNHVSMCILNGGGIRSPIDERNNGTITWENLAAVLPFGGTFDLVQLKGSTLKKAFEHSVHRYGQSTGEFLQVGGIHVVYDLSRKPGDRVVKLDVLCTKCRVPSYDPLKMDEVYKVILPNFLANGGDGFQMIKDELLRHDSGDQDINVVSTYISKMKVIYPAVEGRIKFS
Assay: Inhibition of ecto-5′-nucleotidase (CD73) activity in CHO-CD73 cells, phosphate colorimetric readout
Format: cell-based
Conditions: CHO-K1 cells stably transfected with human CD73, 2500 cells per well, 25 μM AMP substrate, 50 minutes incubation at 37° C.; read-out: Potency: CD73 IC50
Experimental: Inhibition of Ecto-5′-nucleotidase Activity. Compounds were evaluated to determine their ecto-5′-nucleotidase (CD73) inhibitory activity. Briefly, CHO-K1 cells stably transfected with human CD73 were generated by LakePharma (Belmont, CA) using molecular cloning of human CD73 (http://www.uniprot.org/uniprot/P21589) and mammalian transient expression vector (P21589.1). After antibiotic selection in CD OptiCHO cell media (Invitrogen, Catalog #12681-011) containing 5 μg/mL Puromycin and 200 μg/mL Hygromycin B, a suspension pool of CHO-CD73 cells was collected and frozen in 7.5% DMSO in cell media without antibiotics.
On the day of the experiment, one vial of CHO-CD73 cells was thawed and suspended in assay media which consisted of 20 mM HEPES, pH 7.4, 137 mM NaCl, 5.4 mM KCl, 1.3 mM CaCl2), 4.2 mM NaHCO3 and 0.1% glucose. To test the ability of compounds to inhibit CD73 enzymatic activity, 2 μL of 500 μM of compounds dissolved in DMSO (50×) were added to a 96-well polystyrene plate containing 58 μL of assay buffer. Next, 20 μL of CHO-CD73 cells in assay buffer were added to assay plate followed by 20 μL of 125 μM AMP (Adenosine 5′-monophosphate monohydrate) in assay buffer. Final assay conditions consisted of 2500 cells per well in 2% DMSO and 25 μM of AMP substrate. After 50 minutes of incubation (37° C. and 5% CO2) and centrifugation at 225×g for 5 mins, 80 μL of supernatant were transferred to a 96-well Spectra Plate (PerkinElmer, cat #6005640) which was pre-dispensed with 20 μL of PiColorLock Gold colorimetric assay reagents (Thermo, cat #30 300 30). The amount of inorganic phosphate was determined by reading the absorbance at 620 nm on an EnVision Multilabel Plate Reader (PerkinElmer). Enzymatic activity of CD73 was based on the amount of phosphate generated. Percentage of activity was calculated based on DMSO and no cells control wells. IC50 values of compounds were determined by four parameter non-linear regression fitting of percentage of activity in GraphPad Prism software.

SMILES	IC50 [nM]
C[C@@H](Nc1cc(Cl)nc2c1cnn2[C@@H]1O[C@H](COP(=O)(O)CP(=O)(O)O)[C@@H](O)[C@H]1O)c1ccccc1	< 100
C[C@@H](Nc1nc(Cl)nc2c1cnn2[C@@H]1O[C@H](COP(=O)(O)CP(=O)(O)O)[C@@H](O)[C@H]1O)c1ccccc1F	< 100
CN(c1nc(Cl)nc2c1cnn2[C@@H]1O[C@H](COP(=O)(O)CP(=O)(O)O)[C@@H](O)[C@H]1O)C1CCCC1	< 100
C[C@H](Nc1nc(Cl)nc2c1ccn2[C@@H]1O[C@H](COP(=O)(O)CP(=O)(O)O)[C@@H](O)[C@@H]1F)c1cccc(F)c1	< 100
COP(=O)(O)CP(=O)(O)OC[C@H]1O[C@@H](n2cnc3c(NC4CCCC4)nc(Cl)nc32)[C@H](O)[C@@H]1O	100 to 1000
O=P(O)(O)CP(=O)(O)OC[C@H]1O[C@@H](n2cnc3c(NCc4ccccc4)nc(Cl)nc32)[C@@H](F)[C@@H]1O	< 100
C[C@@H](Nc1nc(Cl)nc2c1ccn2[C@@H]1O[C@H](COP(=O)(O)CP(=O)(O)O)[C@@H](O)[C@@H]1F)c1ccc(F)cc1	< 100
COP(=O)(CP(=O)(O)OC[C@H]1O[C@@H](n2cnc3c(N(C)C4CCCC4)nc(Cl)nc32)[C@@H](F)[C@@H]1O)OC	> 1000
Nc1nc(C(O)C2CC2)nc2c1ncn2[C@@H]1O[C@H](COP(=O)(O)CP(=O)(O)O)[C@@H](O)[C@@H]1F (some centres unmarked)	< 100
O=P(O)(O)CP(=O)(O)OC[C@H]1O[C@@H](n2cnc3c(NC4CCCC4)nc(Cl)cc32)[C@H](O)[C@@H]1O	< 100
Nc1nc(Cl)nc2c1ncn2[C@@H]1O[C@H](COP(=O)(O)CP(=O)(O)O)[C@@H](O)[C@@H]1F	< 100
Cc1ccc(CNc2ncnc3c2ncn3[C@@H]2O[C@H](COP(=O)(O)CP(=O)(O)O)[C@@H](O)[C@H]2O)cc1	< 100
CN(c1nc(Cl)nc2c1ncn2[C@@H]1O[C@H](COP(=O)(O)CP(=O)(O)O)[C@@H](O)[C@H]1O)C1CCCC1	< 100
Nc1nc(F)nc2c1ncn2[C@@H]1O[C@H](COP(=O)(O)CP(=O)(O)O)[C@@H](O)[C@H]1O	< 100
Cc1nc(NC2CCCC2)c2ncn([C@@H]3O[C@H](COP(=O)(O)CP(=O)(O)O)[C@@H](O)[C@@H]3F)c2n1	< 100
O=P(O)(O)CP(=O)(O)OC[C@H]1O[C@@H](n2cnc3c(NC4CCCC4)nc(C(F)(F)F)nc32)[C@@H](F)[C@@H]1O	< 100
CN(c1nc(Cl)cc2c1ncn2[C@@H]1O[C@H](COP(=O)(O)CP(=O)(O)O)[C@@H](O)[C@@H]1F)C1CCCC1	< 100
O=P(O)(O)CP(=O)(O)OC[C@H]1O[C@@H](n2cnc3c(NCc4ccc(Cl)cc4)nc(Cl)nc32)[C@@H](F)[C@@H]1O	< 100
CC(COP(=O)(O)CP(=O)(O)O)n1cnc2c(NCc3ccccc3)ncnc21 (centres unmarked)	> 1000
O=P(O)(O)CP(=O)(O)OC[C@H]1O[C@@H](n2cnc3c(N4CCCC4)nc(Cl)nc32)[C@@H](F)[C@@H]1O	< 100
COP(=O)(CP(=O)(O)O)OC[C@H]1O[C@@H](n2cnc3c(N(C)C4CCCC4)nc(Cl)nc32)[C@@H](F)[C@@H]1O (some centres unmarked)	< 100
C[C@H](Nc1nc(Cl)nc2c1cnn2[C@@H]1O[C@H](COP(=O)(O)CP(=O)(O)O)[C@@H](O)[C@@H]1F)c1ccccc1	< 100
O=P(O)(O)CP(=O)(O)OC[C@H]1O[C@@H](n2cnc3c(NCc4ccccc4Cl)nc(Cl)nc32)[C@@H](F)[C@@H]1O	< 100
C[C@H](Nc1nc(Cl)nc2c1ccn2[C@@H]1O[C@H](COP(=O)(O)CP(=O)(O)O)[C@@H](O)[C@@H]1F)c1ccccc1F	< 100
O=P(O)(O)CP(=O)(O)OC[C@H]1O[C@@H](n2ncc3c(NCc4ccccc4)nc(Cl)nc32)[C@H](O)[C@@H]1O	< 100
O=P(O)(O)CP(=O)(O)OC[C@H]1O[C@@H](n2cnc3c(NC4CCCC4)nc(Cl)cc32)[C@@H](F)[C@@H]1O	< 100
O=P(O)(O)CP(=O)(O)OC[C@H]1O[C@@H](n2cnc3c(NCc4ccccc4)nc(C(F)(F)F)nc32)[C@@H](F)[C@@H]1O	< 100

SMILES	IC50 [nM]
CN(c1nc(Cl)nc2c1ncn2[C@@H]1O[C@H](COP(=O)(CP(=O)(Oc2cccc(Cl)c2)Oc2cccc(Cl)c2)Oc2cccc(Cl)c2)[C@@H](O)[C@H]1O)C1CCCC1 (some centres unmarked)	> 1000
C[C@@]1(O)[C@H](O)[C@@H](COP(=O)(O)CP(=O)(O)O)O[C@H]1n1cnc2c(NC3CCCC3)nc(Cl)nc21	< 100
C[C@H](Nc1nc(Cl)nc2c1ccn2[C@@H]1O[C@H](COP(=O)(O)CP(=O)(O)O)[C@@H](O)[C@@H]1F)c1ccccc1	< 100
C[C@H](Nc1nc(Cl)nc2c1cnn2[C@@H]1O[C@H](COP(=O)(O)CP(=O)(O)O)[C@@H](O)[C@H]1O)c1cccc(F)c1	< 100
CC(OP(=O)(O)CP(=O)(O)O)[C@H]1O[C@@H](n2cnc3c(NCc4ccccc4)nc(Cl)nc32)[C@H](O)[C@@H]1O (some centres unmarked)	< 100
CNc1nc(NCc2ccccc2)c2ncn([C@@H]3O[C@H](COP(=O)(O)CP(=O)(O)O)[C@@H](O)[C@H]3O)c2n1	< 100
O=P(O)(O)CP(=O)(O)OC[C@H]1O[C@@H](n2cnc3c(N[C@@H]4CCOC4)nc(Cl)nc32)[C@@H](F)[C@@H]1O	< 100
O=P(O)(O)CP(=O)(O)OC[C@H]1O[C@@H](n2cnc3c(NCc4cc(C(F)(F)F)cc(C(F)(F)F)c4)ncnc32)[C@H](O)[C@@H]1O	< 100
C[C@H](Nc1cc(Cl)nc2c1cnn2[C@@H]1O[C@H](COP(=O)(O)CP(=O)(O)O)[C@@H](O)[C@H]1O)c1ccccc1	< 100
CN(Cc1ccccc1)c1nc(Cl)nc2c1cnn2[C@@H]1O[C@H](COP(=O)(O)CP(=O)(O)O)[C@@H](O)[C@H]1O	< 100
O=P(O)(O)CP(=O)(O)OC[C@H]1O[C@@H](n2cnc3c(NC4CCCC4)cc(Cl)nc32)[C@H](O)[C@@H]1O	< 100
O=P(O)(O)CP(=O)(O)OC[C@H]1O[C@@H](n2cnc3c(NCc4cc(Cl)cc(Cl)c4)ncnc32)[C@H](O)[C@@H]1O	< 100
C[C@@H](Nc1nc(Cl)nc2c1ncn2[C@@H]1O[C@H](COP(=O)(O)CP(=O)(O)O)[C@@H](O)[C@@H]1F)c1ccccc1	< 100
CNc1nc(Cl)nc2c1cnn2[C@@H]1O[C@H](COP(=O)(O)CP(=O)(O)O)[C@@H](O)[C@H]1O	< 100
C[C@H](Nc1nc(Cl)nc2c1ncn2[C@@H]1O[C@H](COP(=O)(O)CP(=O)(O)O)[C@@H](O)[C@@H]1F)c1ccccc1	< 100
CCCc1nc(NCc2ccccc2)c2ncn([C@@H]3O[C@H](COP(=O)(O)CP(=O)(O)O)[C@@H](O)[C@H]3O)c2n1	< 100
CC(C)Sc1nc(NCc2ccccc2)c2ncn([C@@H]3O[C@H](COP(=O)(O)CP(=O)(O)O)[C@@H](O)[C@H]3O)c2n1	< 100
CC(Cn1cnc2c(NCc3ccccc3)ncnc21)OP(=O)(O)CP(=O)(O)O (centres unmarked)	> 1000
C[C@H](Nc1nc(Cl)nc2c1cnn2[C@@H]1O[C@H](COP(=O)(O)CP(=O)(O)O)[C@@H](O)[C@@H]1F)c1ccccc1F	< 100
O=P(O)(O)CP(=O)(O)OC[C@H]1O[C@@H](n2ncc3c(NC4CCCC4)ncnc32)[C@H](O)[C@@H]1O	< 100
O=P(O)(O)CP(=O)(O)OC[C@H]1O[C@@H](n2cnc3c(NCc4ccccc4)nc(N4CCOCC4)nc32)[C@H](O)[C@@H]1O	< 100
Cc1cccc(CNc2nc(Cl)nc3c2ncn3[C@@H]2O[C@H](COP(=O)(O)CP(=O)(O)O)[C@@H](O)[C@@H]2F)c1	< 100
O=P(O)(O)CP(=O)(O)OC[C@H]1O[C@@H](n2ncc3c(NCc4ccc(Cl)cc4)nc(Cl)nc32)[C@H](O)[C@@H]1O	< 100
C[C@H](Nc1nc(Cl)nc2c1cnn2[C@@H]1O[C@H](COP(=O)(O)CP(=O)(O)O)[C@@H](O)[C@@H]1F)c1ccc(F)cc1	< 100
O=P(O)(O)CP(=O)(O)OC[C@H]1O[C@@H](n2cnc3c(NCc4ccccc4)nc(N4CCCC4)nc32)[C@H](O)[C@@H]1O	< 100
O=P(O)(O)CP(=O)(O)OC[C@H]1O[C@@H](n2cnc3c(NC4CCCC4)cc(Cl)nc32)[C@@H](F)[C@@H]1O	< 100
